In patent US12643889B2, “Synthesis of novel EP4 antagonist and use in cancer and inflammation” (Wuhan Humanwell Innovative Drug Research And Development …, priority 2020, dated 2026):

Columns and labels:
human EP4 receptor = human EP4 receptor (Homo sapiens, UniProt P35408); experiment: Assay for EP4 antagonistic effect (cAMP, PGE2-stimulated CHO stable cell line)
Procedure: After trypsinization, cells were resuspended in a buffer (1×HBSS, 0.1% BSA, 20 mM HEPES, and 500 μM IBMX) and 8000 cells were seeded per well in 384-well plates in a seeding volume of 15 μL. A working solution the compound with a 8× concentration was prepared with an experimental buffer, and then 2.5 μL of the working solution of the compound with 8× concentration was added to the 384-well plate, respectively, and incubated at 37° C. for 30 min. An agonist PGE2 working solution with 8× concentration of (4 nM) was prepared with the experimental buffer and 2.5 μL per well was added to the 384-well plate (the final PGE2 concentration was 0.5 nM) and incubated at 37° C. for 30 min. After the reaction was completed, the amount of cAMP in the cells was quantified according to the method in the instructions of the cAMP test kit (Perkin Elmer, Cat #TRF0263). The antagonistic effects (IC50 value) were calculated for the test compounds.

[1] = tested on: CT-26 murine colon cancer tumor model; experiment: Anti-tumor effect in CT-26 murine colon cancer tumor model in combination with radiation therapy; type: in vivo, mouse; conditions: 150 mg/kg intragastric once daily in combination with radiotherapy (3Gry, once on day 1); day 23; tumor weight
Procedure: In this assay, the anti-tumor effects of the control compound and the compounds prepared in Examples 1 to 43, in combination with radiation therapy, were tested in a CT-26 murine colon cancer tumor model.
After one week of adaptive feeding of mice, CT-26 cells in a log phase were resuspended in PBS, 5×10^5 CT-26 cells were inoculated subcutaneously at the right flank at 100 μL per mouse, and tumor growth was observed regularly. When the tumor grew to an average volume of 60 to 80 mm^3, the mice carrying the tumor were randomly divided into 5 groups based on the tumor volume size, each group containing 10 mice of 10. These group were a group of Control compound (150 mg/kg) in combination with radiotherapy (3Gry), a group of Compound I-2 (150 mg/kg) in combination with radiotherapy, a group of Compound I-5 (150 mg/kg) in combination with radiotherapy, a group of radiotherapy (3Gry) alone, and a group of vehicle control. The mice were intragastrically administered with the corresponding compound once daily, for 23 days in total; radiation therapy was performed for one-time on the first day of the administration. Tumor volumes and mouse body weights were measured twice a week, and tumor weights were weighed at the end of the experiment. Efficacy evaluations were performed based on relative tumor inhibition (TGI), safety evaluations were performed based on changes in animal body weight and death. Tumor volume and relative tumor inhibition were calculated as follows:
Tumor volume (TV)=½×a×b^2, where a and b are the length and width of the tumor measurement, respectively.
Relative tumor inhibition rate TGI (%)=(TWc−TWt/TWc)×100%, where TWc is the mean tumor weight of the vehicle control group and TW is the mean tumor weight of the treatment group.

human EP4 receptor, sequence (P35408 whole entry): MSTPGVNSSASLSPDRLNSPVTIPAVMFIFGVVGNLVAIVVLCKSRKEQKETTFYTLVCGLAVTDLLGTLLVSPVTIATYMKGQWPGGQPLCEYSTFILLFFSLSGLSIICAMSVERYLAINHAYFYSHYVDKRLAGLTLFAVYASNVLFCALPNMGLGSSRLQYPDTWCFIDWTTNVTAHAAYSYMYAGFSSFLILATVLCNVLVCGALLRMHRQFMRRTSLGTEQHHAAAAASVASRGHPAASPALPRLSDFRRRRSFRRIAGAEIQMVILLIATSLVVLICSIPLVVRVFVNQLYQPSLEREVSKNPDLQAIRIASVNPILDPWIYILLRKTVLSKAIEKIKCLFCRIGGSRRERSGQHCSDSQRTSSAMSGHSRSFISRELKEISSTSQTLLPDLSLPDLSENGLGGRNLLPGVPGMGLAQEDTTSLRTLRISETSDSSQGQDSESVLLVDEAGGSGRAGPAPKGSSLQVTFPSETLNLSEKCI

IC50 (human EP4 receptor): 2.2 nM
Compound: C[C@H](NC(=O)c1c(C(F)F)nn(C)c1Oc1cccc(C(C)(F)F)c1)c1ccc(C(=O)O)cc1 [Compound I-5, (S)-4-(1-(5-(3-(1,1-difluoroethyl)phenoxy)-3-(difluoromethyl)-1-methyl-1H-pyrazole-4-carboxamido)ethyl)benzoic Acid]
relative tumor inhibition rate TGI (%) [1]: 79%
